# According to patent publication US20100233158A1, “INDUCTION OF IMMUNE TOLERANCE” (Genzyme Corporation, priority 2002, published 2010):
# System: cardiac allograft rejection
# Assay: Heart transplant rejection mouse model (C57/BL6 heart into Balb/c recipient, total MHC mismatch)
# Format: in vivo, mice
# Conditions: Compound 1 alone, 75 mg/kg/day for fourteen days following surgery; untreated controls rejected after ten days; p<0.001
# Experimental: The ability of a combination therapy of rapamycin and Compound 1 to inhibit transplant rejection in a mouse model was tested. […] Following surgery, the mice were divided into the following treatment groups: • Group I is a control group that was untreated. • Group II was treated with Compound 1 at a dose of 75 mg/kg/day subcutaneously for fourteen days following surgery. • Group III was treated with rapamycin at a dose of 0.3 mg/kg/day intraperitoneally for three days following surgery. • Group IV was treated with Compound 1 at a dose of 75 mg/kg/day intraperitoneally for fourteen days following surgery and with rapamycin at a dose of 0.3 mg/kg/day intraperitoneally for three days following surgery.
structure (smiles),measurement,value
N#Cc1cccc(C(C(=O)NCC(c2ccccc2)c2ccccc2)N(CCc2c[nH]cn2)C(=O)c2ccccc2C(=O)c2ccccc2)c1 (stereo not shown) [Compound 1],delay in the onset of rejection,two to three
